Data from patent US12653809B2, “Urea, amide, and substituted heteroaryl compounds for CBL-B inhibition” (Nurix Therapeutics, Inc., priority 2019, dated 2026).
Like-named read-outs stand apart in the source and are kept apart here.

Target: T1, Cbl-b (truncated variant, UniProt number Q13191) (Homo sapiens, UniProt Q13191)
T1 construct: made in house
Test: Cbl-b activity assay (TR-FRET, interaction of Cbl-b with UbcH5B-Ub)
Format: biochemical

[1] = high conditions: 100 mM NaCl, 60 nM Src kinase, 12 nM Cbl-b, read-out: Cbl-b activity IC50

T1 sequence (Q13191 36-427): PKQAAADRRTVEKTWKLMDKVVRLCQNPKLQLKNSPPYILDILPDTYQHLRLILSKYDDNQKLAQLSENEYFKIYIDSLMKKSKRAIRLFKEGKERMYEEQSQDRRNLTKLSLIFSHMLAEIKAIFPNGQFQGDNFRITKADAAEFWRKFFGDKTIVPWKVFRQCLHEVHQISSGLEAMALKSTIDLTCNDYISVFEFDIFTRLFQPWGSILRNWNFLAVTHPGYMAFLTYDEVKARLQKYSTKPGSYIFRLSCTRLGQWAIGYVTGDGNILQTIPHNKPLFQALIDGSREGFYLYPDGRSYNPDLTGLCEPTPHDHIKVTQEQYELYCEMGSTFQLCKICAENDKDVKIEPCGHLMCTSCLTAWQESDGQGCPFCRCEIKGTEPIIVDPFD

| IC50 [1] [µM] | IC50 (Biological Example 1A, low or high conditions not stated, read-out: IC50 values in the Cbl-b inhibition assay of Biological Example 1A) [µM] | Compound |
| --- | --- | --- |
| ≥ 5 |  | C[C@H](Sc1nncn1C)c1cccc(NC(=O)N2CCOC(c3ncon3)C2)c1 (stereo partly drawn) [Example 154, N-(3-((S)-1-((4-methyl-4H-1,2,4-triazol-3-yl)thio)ethyl)phenyl)-2-(1,2,4-oxadiazol-3-yl)morpholine-4-carboxamide] |
| ≥ 5 |  | C[C@H](Sc1nncn1C)c1cccc(NC(=O)N2CCN(C)CC2)c1 [Example 155, (S)-4-methyl-N-(3-(1-((4-methyl-4H-1,2,4-triazol-3-yl)thio)ethyl)phenyl)piperazine-1-carboxamide] |
| ≥ 5 |  | C[C@H](Sc1nncn1C)c1cccc(NC(=O)N2CCN(C3CC3)C(=O)C2)c1 [Example 156, (S)-4-cyclopropyl-N-(3-(1-((4-methyl-4H-1,2,4-triazol-3-yl)thio)ethyl)phenyl)-3-oxopiperazine-1-carboxamide] |
| ≥ 5 |  | C[C@H](Sc1nncn1C)c1cccc(NC(=O)N2CCC(c3ccccn3)C2)c1 (stereo partly drawn) [Example 157, N-(3-((S)-1-((4-methyl-4H-1,2,4-triazol-3-yl)thio)ethyl)phenyl)-3-(pyridin-2-yl)pyrrolidine-1-carboxamide] |
| ≥ 5 |  | C[C@H](Sc1nncn1C)c1cccc(NC(=O)Nc2ccc(S(=O)(=O)N(C)C)cc2)c1 [Example 158, (S)—N,N-dimethyl-4-(3-(3-(1-((4-methyl-4H-1,2,4-triazol-3-yl)thio)ethyl)phenyl)ureido)benzenesulfonamide] |
| ≥ 5 |  | C[C@H](Sc1nncn1C)c1cccc(NC(=O)NC2CCCN(C)C2)c1 (stereo partly drawn) [Example 159, 1-(3-((S)-1-((4-methyl-4H-1,2,4-triazol-3-yl)thio)ethyl)phenyl)-3-(1-methylpiperidin-3-yl)urea] |
| ≥ 5 |  | CC(=O)N1CCC2(CCN(C(=O)Nc3cccc([C@H](C)Sc4nncn4C)c3)CC2)C1 [Example 160, (S)-2-acetyl-N-(3-(1-((4-methyl-4H-1,2,4-triazol-3-yl)thio)ethyl)phenyl)-2,8-diazaspiro[4.5]decane-8-carboxamide] |
| ≥ 5 |  | C[C@H](Sc1nncn1C)c1cccc(NC(=O)NC2CCCCC2)c1 [Example 161, (S)-1-cyclohexyl-3-(3-(1-((4-methyl-4H-1,2,4-triazol-3-yl)thio)ethyl)phenyl)urea] |
| ≥ 5 |  | CC(=O)N1CCN(C(=O)Nc2cccc([C@H](C)Sc3nncn3C)c2)CC1 [Example 162, (S)-4-acetyl-N-(3-(1-(4-methyl-4H-1,2,4-triazol-3-ylthio)ethyl)phenyl)piperazine-1-carboxamide] |
| ≥ 5 |  | CNS(=O)(=O)c1ccc(NC(=O)Nc2cccc([C@H](C)Sc3nncn3C)c2)cc1 [Example 163, (S)—N-methyl-4-(3-(3-(1-((4-methyl-4H-1,2,4-triazol-3-yl)thio)ethyl)phenyl)ureido)benzenesulfonamide] |
| ≥ 5 |  | C[C@H](Sc1nncn1C)c1cccc(NC(=O)N2CCC2)c1 [Example 164, (S)—N-(3-(1-(4-methyl-4H-1,2,4-triazol-3-ylthio)ethyl)phenyl)azetidine-1-carboxamide] |
| ≥ 5 |  | C[C@H](Sc1nncn1C)c1cccc(NC(=O)N2CCS(=O)(=O)CC2)c1 [Example 165, (S)—N-(3-(1-((4-methyl-4H-1,2,4-triazol-3-yl)thio)ethyl)phenyl)thiomorpholine-4-carboxamide 1,1-dioxide] |
| ≥ 5 |  | Cn1cnnc1[C@H]1C[C@H]1c1cccc(NC(=O)N2CCOc3cccnc32)c1 [Example 166, N-(3-((1R,2S)-2-(4-methyl-4H-1,2,4-triazol-3-yl)cyclopropyl)phenyl)-2,3-dihydro-4H-pyrido[3,2-b][1,4]oxazine-4-carboxamide] |
| 1 to 5 | 1 to 5 | CC(Sc1nncn1C)c1cccc(-n2cc(-c3ccccc3)nn2)c1 (centres unmarked) [Example 167, 1-(3-(1-((4-methyl-4H-1,2,4-triazol-3-yl)thio)ethyl)phenyl)-4-phenyl-1H-1,2,3-triazole] |

Second part, the compound before the results:

| Compound | IC50 [1] [µM] | IC50 (Biological Example 1A, low or high conditions not stated, read-out: IC50 values in the Cbl-b inhibition assay of Biological Example 1A) [µM] |
| --- | --- | --- |
| CCN1CCc2nc(NC(=O)Nc3cccc([C@H](C)Sc4nncn4C)c3)sc2C1 [Example 137, (S)-1-(5-ethyl-4,5,6,7-tetrahydrothiazolo[5,4-c]pyridin-2-yl)-3-(3-(1-((4-methyl-4H-1,2,4-triazol-3-yl)thio)ethyl)phenyl)urea] | ≥ 5 |  |
| C[C@H](Sc1nncn1C)c1cccc(NC(=O)N2CC3(CCCO3)C2)c1 [Example 138, N-[3-[(1S)-1-[(4-methyl-4H-1,2,4-triazol-3-yl)sulfanyl]ethyl]phenyl]-5-oxa-2-azaspiro[3.4]octane-2-carboxamide] | ≥ 5 |  |
| C[C@H](Sc1nncn1C)c1cccc(NC(=O)N2CCC3(CNC(=O)C3)C2)c1 (stereo partly drawn) [Example 139, N-(3-((S)-1-((4-methyl-4H-1,2,4-triazol-3-yl)thio)ethyl)phenyl)-8-oxo-2,7-diazaspiro[4.4]nonane-2-carboxamide] | ≥ 5 |  |
| C[C@H](Sc1nncn1C)c1cccc(NC(=O)N2CC(C(=O)N3CCC(O)CC3)C2)c1 [Example 140, (S)-3-(4-hydroxypiperidine-1-carbonyl)-N-(3-(1-((4-methyl-4H-1,2,4-triazol-3-yl)thio)ethyl)phenyl)azetidine-1-carboxamide] | ≥ 5 |  |
| C[C@H](Sc1nncn1C)c1cccc(NC(=O)N2CC3(CCOC(=O)N3)C2)c1 [Example 141, (S)—N-(3-(1-((4-methyl-4H-1,2,4-triazol-3-yl)thio)ethyl)phenyl)-6-oxo-7-oxa-2,5-diazaspiro[3.5]nonane-2-carboxamide] | ≥ 5 |  |
| C[C@H](Sc1nncn1C)c1cccc(NC(=O)N2CCC2c2ccccc2)c1 (stereo partly drawn) [Example 142, N-(3-((S)-1-((4-methyl-4H-1,2,4-triazol-3-yl)thio)ethyl)phenyl)-2-phenylazetidine-1-carboxamide] | ≥ 5 |  |
| CC(CO)N(C)C(=O)Nc1cccc([C@H](C)Sc2nncn2C)c1 (stereo partly drawn) [Example 143, 1-(1-hydroxypropan-2-yl)-1-methyl-3-(3-((S)-1-((4-methyl-4H-1,2,4-triazol-3-yl)thio)ethyl)phenyl)urea] | ≥ 5 |  |
| CNS(=O)(=O)c1cc(NC(=O)Nc2cccc([C@H](C)Sc3nncn3C)c2)ccc1C [Example 144, (S)—N,2-dimethyl-5-(3-(3-(1-((4-methyl-4H-1,2,4-triazol-3-yl)thio)ethyl)phenyl)ureido)benzenesulfonamide] | ≥ 5 |  |
| C[C@H](Sc1nncn1C)c1cccc(NC(=O)N2Cc3nccnc3C2)c1 [Example 145, (S)—N-(3-(1-((4-methyl-4H-1,2,4-triazol-3-yl)thio)ethyl)phenyl)-5,7-dihydro-6H-pyrrolo[3,4-b]pyrazine-6-carboxamide] | ≥ 5 |  |
| C[C@H](Sc1nncn1C)c1cccc(NC(=O)N2CCOCC2CO)c1 (stereo partly drawn) [Example 146, 3-(hydroxymethyl)-N-(3-((S)-1-((4-methyl-4H-1,2,4-triazol-3-yl)thio)ethyl)phenyl)morpholine-4-carboxamide] | ≥ 5 |  |
| C[C@H](Sc1nncn1C)c1cccc(NC(=O)Nc2ccc(N3CCOCC3=O)cc2)c1 [Example 147, (S)-1-(3-(1-(4-methyl-4H-1,2,4-triazol-3-ylthio)ethyl)phenyl)-3-(4-(3-oxomorpholino)phenyl)urea] | ≥ 5 |  |
| COc1cc(N2CCOCC2)ccc1NC(=O)Nc1cccc([C@H](C)Sc2nncn2C)c1 [Example 148, (S)-1-(2-methoxy-4-morpholinophenyl)-3-(3-(1-((4-methyl-4H-1,2,4-triazol-3-yl)thio)ethyl)phenyl)urea] | ≥ 5 |  |
| C[C@H](Sc1nncn1C)c1cccc(NC(=O)N2CCN(c3cccnc3)CC2)c1 [Example 149, (S)—N-(3-(1-((4-methyl-4H-1,2,4-triazol-3-yl)thio)ethyl)phenyl)-4-(pyridin-3-yl)piperazine-1-carboxamide] | ≥ 5 |  |
| C[C@H](Sc1nncn1C)c1cccc(NC(=O)Nc2ccc(CC(=O)N(C)C)cc2)c1 [Example 150, (S)—N,N-dimethyl-2-(4-(3-(3-(1-((4-methyl-4H-1,2,4-triazol-3-yl)thio)ethyl)phenyl)ureido)phenyl)acetamide] | ≥ 5 |  |
| C[C@H](Sc1nncn1C)c1cccc(NC(=O)N2CCCC2)c1 [Example 151, N-[3-[(1S)-1-[(4-methyl-4H-1,2,4-triazol-3-yl)sulfanyl]ethyl]phenyl]pyrrolidine-1-carboxamide] | ≥ 5 |  |
| CCn1cc(CN(C)C(=O)Nc2cccc([C@H](C)Sc3nncn3C)c2)cn1 [Example 152, (S)-1-((1-ethyl-1H-pyrazol-4-yl)methyl)-1-methyl-3-(3-(1-((4-methyl-4H-1,2,4-triazol-3-yl)thio)ethyl)phenyl)urea] | ≥ 5 |  |
| C[C@H](Sc1nncn1C)c1cccc(NC(=O)N2CC(C(=O)N3CCC(O)C3)C2)c1 (stereo partly drawn) [Example 153, 3-(3-hydroxypyrrolidine-1-carbonyl)-N-(3-((S)-1-((4-methyl-4H-1,2,4-triazol-3-yl)thio)ethyl)phenyl)azetidine-1-carboxamide] | ≥ 5 |  |
